The source of these data is patent publication US20220195461A1, “METHODS AND COMPOSITIONS FOR TRANSGENE EXPRESSION” (priority 2019, published 2022).

Bounds are passed on as bounds.

The test system of this series is CF (HBE and HTE, dF508/dF508, Passage 0) cells. As to the kind of experiment: LDH activity (toxicity) of AV.TL65 plus proteasome inhibitor versus AAV alone. Format: cell-based, human. The following applies: for LDH (toxicity) activity compared to AAV without a proteasome inhibitor: augmenter + AV.TL65-gLuc-mCherry, 4 days after infection (FIG. 1B); for toxicity of the enhancement: augmenter combined with AV.TL65Luciferase-mCherry, ALI HBE cultures; for LDH relative to baseline: passage 0 (P0) cells. The source says:
FIGS. 1A and 1B are a series of graphs showing the ratio of luciferase activity in cells treated with AV.TL65+proteasome inhibitor (PI) versus AAV alone (FIG. 1A) and the ratio of LDH activity in cells treated with AV.TL65+PI versus AAV alone (FIG. 1B). […] Relative Luminescence Units in CF HBE treated with AV.TL65 with PI exceeded 200-fold of AV.TL65 without PI. Toxicity of AV.TL65 with PI as measured by LDH activity was mostly below 150% of AV.TL65 without PI.
We have generated a novel AAV vector featuring a capsid that is highly efficient at transducing human airway epithelium in the apical membrane. Specifically, we have used AV.TL65-SP183-CFTRΔR to deliver an R-domain-partially-deleted CFTR minigene and AV.TL65Luciferase-mCherry, a dual reporter vector, to express luciferase and fluorescent mCherry protein. The AV.TL65-SP183-CFTRΔR rAAV vector included a polynucleotide comprising: a 5′ AAV ITR comprising the sequence of SEQ ID NO:15, an F5 enhancer comprising the sequence of SEQ ID NO:14 (which may include a 5′ EcoRI site and a 3′ XhoI site, as in SEQ ID NO:1), a tg83 promoter comprising the sequence of SEQ ID NO:2, a 5′ UTR comprising the sequence of SEQ ID NO:3, a hCFTRΔR minigene comprising the sequence of SEQ ID NO:4, a 3′ UTR comprising the sequence of SEQ ID NO:5, a s-pA comprising the sequence of SEQ ID NO:6, and a 3′ AAV ITR comprising the sequence of SEQ ID NO:16. For example, the packaged polynucleotide may include the sequence of SEQ ID NO:17. […] We have shown that combining AV.TL65Luciferase-mCherry with doxorubicin or idarubicin provides non-toxic enhancement of luciferase expression by more than 600-fold of air-liquid interface (ALI) human bronchial epithelial (HBE) cultures from 5 separate CF (homozygous dF508/dF508 CFTR) and non-CF donors compared to AV.TL65Luciferase-mCherry without proteasome inhibitor. In another experiment, doxorubicin and idarubicin+AV.TL65-gLuc-mCherry improved transduction over AAV without a proteasome inhibitor by over 200-fold (FIG. 1A, dashed line). Doxorubicin added to AV.TL65-gLuc-mCherry but not idarubicin had less than 150% LDH (toxicity) activity compared to AAV without a proteasome inhibitor (FIG. 1B; dashed line). Transduction efficiency gains in passage 0 (PO) cells were well above 200-fold better with doxorubicin and idarubicin with LDH <1.5× baseline for doxorubicin and >1.5× baseline for idarubicin.

With `COc1cccc2c1C(=O)c1c(O)c3c(c(O)c1C2=O)C[C@@](O)(C(=O)CO)C[C@@H]3O[C@H]1C[C@H](N)[C@H](O)[C@H](C)O1` [doxorubicin], the “LDH (toxicity) activity compared to AAV without a proteasome inhibitor” value was “less than 150%”, the “toxicity of the enhancement” value is “non-toxic” and the “LDH relative to baseline” value was less than 1.5 × baseline.

For the compound `CC(=O)[C@]1(O)Cc2c(O)c3c(c(O)c2[C@@H](O[C@H]2C[C@H](N)[C@H](O)[C@H](C)O2)C1)C(=O)c1ccccc1C3=O` [idarubicin], the “LDH (toxicity) activity compared to AAV without a proteasome inhibitor” value is reported as not below 150%, the “toxicity of the enhancement” value is on record as “non-toxic” and the “LDH relative to baseline” value is reported as more than 1.5 × baseline.
